Test results: patent US20260083864A1, “CONTRAST AGENTS FOR USE IN DIAGNOSTIC COMPUTED TOMOGRAPHY IMAGING” (Bayer Aktiengesellschaft, priority 2022, published 2026)

Assays:
[1] = Relaxivity measurements at 1.41 T in water; assay type: physicochemical; conditions: 37° C., normalized to Gd
Method: (§1) Relaxivity measurements at 1.41 T were performed using a MiniSpec mq60 spectrometer (Bruker Analytik, Karlsruhe, Germany) operating at a resonance frequency of 60 MHz and a temperature of 37° C. The T1 relaxation times were determined using the standard inversion recovery (IR) method with a fixed relaxation delay of at least 5×T1. The variable inversion time (TI) was calculated automatically by the standard software of the MiniSpec mq60 (8 steps). The T2 measurements were performed by using a Carr-Purcell-Meiboom-Gill (CPMG) pulse sequence, applying a relaxation delay of at least 5×T1.
Each relaxivity measurement was performed using three different Gd concentrations (3 concentrations between 0.05 and 2 mM). […] Human plasma preparation: For each experiment fresh blood was taken from a volunteer using 10 mL citrate-tubes (Sarstedt S-Monovette 02.1067.001, 10 mL, Citrate). The 10 mL citrate-tubes were carefully inverted 10 times to mix blood and anticoagulant and centrifuged for 15 min at 1811 g at RT (Eppendorf, Centrifuge 5810R).
(§2) The relaxivities n (where i=1, 2) were calculated based on the measured relaxation rates Ri in water and plasma: […]

[2] = Water solubility in aqueous buffer
Method: The solid compounds were added stepwise to the buffer solution. More substance is added once all the suspended material is dissolved until an equilibrium between undissolved and dissolved substance is reached. The suspension was mixed using a shaker (Heidolph Reax 2000) and treated 5 min in an ultrasound bath (Bandelin, Sonorex Super RK255H).

[3] = test system: freshly isolated rat hepatocytes; test: Uptake into freshly isolated rat hepatocytes; conditions: for Uptake rat hepatocytes: 100 μmol Gd/L, 10 min, 37° C., relative to RC1 (Gd-EOB-DTPA); for Inhibition Rifampicine: rat hepatocyte uptake, test item and Rifampicine 1:1, each 100 μM
[4] = target: T1, OATP1B1 (Homo sapiens, UniProt Q9Y6L6); test: Uptake into stable transfected OATP1B1 HEK 293 cells; assay type: cell-based; conditions: for Inhibition Rifampicine: uptake into OATP1B1-HEK 293 cells
T1 sequence (Q9Y6L6 1-691): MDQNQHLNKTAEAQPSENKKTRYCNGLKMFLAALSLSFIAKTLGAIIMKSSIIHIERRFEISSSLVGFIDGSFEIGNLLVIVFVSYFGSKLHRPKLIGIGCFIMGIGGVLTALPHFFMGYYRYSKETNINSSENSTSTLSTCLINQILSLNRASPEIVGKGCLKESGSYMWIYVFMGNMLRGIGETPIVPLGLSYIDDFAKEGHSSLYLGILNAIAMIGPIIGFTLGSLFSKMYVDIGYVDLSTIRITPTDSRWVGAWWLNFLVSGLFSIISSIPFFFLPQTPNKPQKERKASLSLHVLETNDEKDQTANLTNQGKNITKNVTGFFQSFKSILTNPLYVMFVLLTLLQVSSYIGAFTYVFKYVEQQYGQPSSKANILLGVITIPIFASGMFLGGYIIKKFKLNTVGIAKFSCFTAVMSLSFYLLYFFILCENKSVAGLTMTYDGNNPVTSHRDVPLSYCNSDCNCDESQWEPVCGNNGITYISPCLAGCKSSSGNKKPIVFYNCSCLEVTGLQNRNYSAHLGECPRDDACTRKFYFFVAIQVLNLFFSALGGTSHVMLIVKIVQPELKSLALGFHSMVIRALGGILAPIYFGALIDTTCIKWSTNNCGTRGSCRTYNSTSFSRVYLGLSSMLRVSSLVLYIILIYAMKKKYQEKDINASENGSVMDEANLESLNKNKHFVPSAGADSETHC
Method: (§3) Cryopreserved cells were shortly thawed in water bath and diluted in 10 mL warm culture medium (37° C.). After medium change the cells were grown for 3d in a 25 cm^2 cell culture flask. After 3 to 5d the cells were transferred into 75 cm^2 flasks. […] All test items were prepared in transport buffer at a final concentration of 100 M from stock solutions (180 to 500 mM concentration). The OATP1B1 HEK 293 cells were incubated with test solutions (test item in transport buffer 500 L) for 40 min on a thermoshaker without shaking (PHMP, Fa. Grant Bio). Triplicates were performed for each test item. After incubation the cells were washed with 2 mL of cold PBS (+) buffer (Dulbeccos PBS+, Fa. Gibco). […] As a reference standard Gd-EOB-DTPA (gadoxetate) is used in the same well plate.

[5] = Relaxivity measurements at 1.41 T in human plasma; assay type: physicochemical; conditions: 37° C., normalized to Gd
Method: as §1, with “The” for “Relaxivity measurements at 1.41 T were performed using a MiniSpec mq60 spectrometer (Bruker Analytik, Karlsruhe, Germany) operating at a resonance frequency of 60 MHz and a temperature of 37° C. The”
Each relaxivity measurement was performed using three different Gd concentrations (3 concentrations between 0.05 and 2 mM).
as §2

[6] = Partition coefficient (log P butanol/buffer); assay type: physicochemical
[7] = target: T2, OATP1B3 (Homo sapiens, UniProt Q9NPD5); test: Uptake into stable transfected OATP1B3 HEK 293 cells; assay type: cell-based; conditions: for Inhibition Rifampicine: uptake into OATP1B3-HEK 293 cells
T2 sequence (Q9NPD5 1-702): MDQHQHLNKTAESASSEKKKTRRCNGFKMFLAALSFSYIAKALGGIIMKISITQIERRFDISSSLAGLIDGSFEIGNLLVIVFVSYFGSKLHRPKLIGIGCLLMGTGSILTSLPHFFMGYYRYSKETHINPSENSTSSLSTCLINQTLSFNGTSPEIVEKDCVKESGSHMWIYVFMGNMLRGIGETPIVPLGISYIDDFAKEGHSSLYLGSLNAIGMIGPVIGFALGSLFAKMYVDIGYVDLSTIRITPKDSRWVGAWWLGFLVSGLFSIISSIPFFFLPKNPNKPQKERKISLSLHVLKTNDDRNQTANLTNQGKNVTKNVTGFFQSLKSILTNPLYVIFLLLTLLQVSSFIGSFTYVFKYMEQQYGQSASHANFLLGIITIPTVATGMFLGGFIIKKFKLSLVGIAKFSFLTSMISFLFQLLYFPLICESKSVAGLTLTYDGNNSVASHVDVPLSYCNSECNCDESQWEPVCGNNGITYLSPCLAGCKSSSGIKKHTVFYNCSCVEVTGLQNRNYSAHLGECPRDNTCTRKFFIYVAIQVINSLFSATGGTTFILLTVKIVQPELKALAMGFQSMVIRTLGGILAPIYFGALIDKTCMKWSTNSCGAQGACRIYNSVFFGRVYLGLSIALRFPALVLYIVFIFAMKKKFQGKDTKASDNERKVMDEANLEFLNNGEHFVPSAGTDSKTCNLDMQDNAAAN
Method: as §3, with “100 µM” for “100 M”, “The OATP1B3” for “The OATP1B1”, “500 μL)” for “500 L)”

[8] = aqueous buffer 10 mM Tris-HCl, pH 7.4, 20° C.
[9] = 1-butanol / 50 mM Tris-HCl, pH 7.4, room temperature
[10] = 40 min incubation, relative to RC1 (Gd-EOB-DTPA)

SMILES	r1 water [1]	Solubility [2, 8]	Uptake rat hepatocytes [3]	Inhibition Rifampicine [3]	Inhibition Rifampicine [4]	r1 human plasma [5]	Log P (partition coefficient butanol/buffer) [6, 9]	Inhibition Rifampicine [7]	Uptake into OATP1B1-HEK 293 cells [4, 10]	Uptake into OATP1B3-HEK 293 cells [7, 10]	Solubility ([2]; pH 7.4)	Log P (partition coefficient butanol/buffer) ([6]; pH 7.4)
CCOCCOCCOc1ccc(CCC[C@@H](C(=O)O)N2CCN(C(CO)C(=O)[O-])CCN(C(CO)C(=O)[O-])CCN(C(CO)C(=O)[O-])CC2)cc1.[Gd+3] (mixture of isomers) [Example 21, gadolinium-2,2′,2″-{10-[(1S)-1-carboxy-4-{4-[2-(2-ethoxyethoxy)ethoxy]phenyl}butyl]-1,4,7,10-tetraazacyclododecane-1,4,7-triyl}tris(3-hydroxypropanoate)]	5.4 L/mmol/s	>0.368 mol/L	81 % of RC1	91 % inhibition	75 % inhibition	8.5 L/mmol/s	−1.03	94 % inhibition				
O=C([O-])CN1CCN(C(Cc2ccc(OCC(F)(F)C(F)F)cc2)C(=O)O)CCN(CC(=O)[O-])CCN([C@@H](CO)C(=O)[O-])CC1.[Gd+3] (mixture of isomers) [Example 33, gadolinium (2S)-2-[4,10-bis(carboxylatomethyl)-7-{1-carboxy-2-[4-(2,2,3,3-tetrafluoropropoxy)phenyl]ethyl}-1,4,7,10-tetraazacyclododecan-1-yl]-3-hydroxypropanoate]	4.2 L/mmol/s	>0.029 mol/L	82 % of RC1	94 % inhibition	88 % inhibition	11.7 L/mmol/s	−0.55	98 % inhibition	367 % of RC1	71 % of RC1		
CCOCCOCCOc1ccc(CCC[C@@H](C(=O)O)N2CCN(C(CCO)C(=O)[O-])CCN(C(CCO)C(=O)[O-])CCN(C(CCO)C(=O)[O-])CC2)cc1.[Gd+3] (mixture of isomers) [Example 36, gadolinium-2,2′-{4-[(1S)-1-carboxy-4-{4-[2-(2-ethoxyethoxy)ethoxy]phenyl}butyl]-10-[1-carboxylato-3-hydroxypropyl]-1,4,7,10-tetraazacyclododecane-1,7-diyl}bis(4-hydroxybutanoate)]	6.1 L/mmol/s					8.5 L/mmol/s					0.085 mol/L	−1.08
CCOCCOCCOc1ccc(CC(C(=O)O)N2CCN(CC(=O)[O-])CCN(C(C)C(=O)[O-])CCN(CC(=O)[O-])CC2)cc1.[Gd+3] (single isomer, unassigned) [Example 5, gadolinium 2-[7-(1-carboxy-2-{4-[2-(2-ethoxyethoxy)ethoxy]phenyl}ethyl)-4,10-bis(carboxylatomethyl)-1,4,7,10-tetraazacyclododecan-1-yl]propanoate]	4.7 L/mmol/s	>0.059 mol/L	28 % of RC1	92 % inhibition		6.9 L/mmol/s	−1.52					
CCOCCOCCOc1ccc(CCC[C@@H](C(=O)O)N2CCN([C@@H](CO)C(=O)[O-])CCN([C@H](CO)C(=O)[O-])CCN([C@@H](CO)C(=O)[O-])CC2)cc1.[Gd+3] [Example 35, gadolinium (2S,2'S)-2,2′-{4-[(1S)-1-carboxy-4-{4-[2-(2-ethoxyethoxy)ethoxy]phenyl}butyl]-10-[(1R)-1-carboxylato-2-hydroxyethyl]-1,4,7,10-tetraazacyclododecane-1,7-diyl}bis(3-hydroxypropanoate)]	5.6 L/mmol/s	>0.164 mol/L			87 % inhibition	8.6 L/mmol/s	−1.02	98 % inhibition				
CCOCCOCCOc1ccc(CC(C(=O)O)N2CCN(C(CCO)C(=O)[O-])CCN(C(CCO)C(=O)[O-])CCN(C(CCO)C(=O)[O-])CC2)cc1.[Gd+3] (stereo not shown) [Example 37, gadolinium-2,2′-{4-[1-carboxy-2-{4-[2-(2-ethoxyethoxy)ethoxy]phenyl}ethyl]-10-[1-carboxylato-3-hydroxypropyl]-1,4,7,10-tetraazacyclododecane-1,7-diyl}bis(4-hydroxybutanoate)]	6.4 L/mmol/s	0.018 mol/L	26 % of RC1	37 % inhibition		8.4 L/mmol/s	−1.16					
